{"source": "ChEMBL document CHEMBL6115036", "about": "“Exploration of membrane-active cephalosporin derivatives as potent antibacterial agents against Staphylococcus aureus biofilms and persisters” (Eur J Med Chem, 2025)", "key": {"[1]": {"tested_on": "Enterococcus faecalis", "assay": "Antimicrobial activity against Enterococcus faecalis incubated for 16 to 18 hrs by broth dilution assay", "assay_type": "functional", "conditions": "time 16-18 hrs"}, "[2]": {"tested_on": "Staphylococcus aureus", "assay": "Antimicrobial activity against Staphylococcus aureus incubated for 16 to 18 hrs by broth dilution assay", "assay_type": "functional", "conditions": "time 16-18 hrs"}, "[3]": {"tested_on": "Stenotrophomonas maltophilia", "assay": "Antimicrobial activity against Stenotrophomonas maltophilia incubated for 16 to 18 hrs by broth dilution assay", "assay_type": "functional", "conditions": "time 16-18 hrs"}, "[4]": {"tested_on": "Escherichia coli", "assay": "Antimicrobial activity against Escherichia coli incubated for 16 to 18 hrs by broth dilution assay", "assay_type": "functional", "conditions": "time 16-18 hrs"}, "[5]": {"assay": "Hemolytic activity in sheep red blood cells incubated for 1 hr", "assay_type": "toxicity, cell-based, Ovis aries, Erythrocyte"}, "[6]": {"tested_on": "Staphylococcus aureus", "assay": "Induction of resistance development in Staphylococcus aureus assessed as fold increase in MIC at sub-MIC measured after 20 passages relative to control", "assay_type": "functional"}, "[7]": {"tested_on": "Staphylococcus aureus", "assay": "Induction of resistance development in drug-resistant Staphylococcus aureus assessed as fold increase in MIC of rifampicin at sub-MIC measured after 20 passages relative to control", "assay_type": "functional"}, "[8]": {"tested_on": "Staphylococcus aureus", "assay": "Induction of resistance development in drug-resistant Staphylococcus aureus assessed as fold increase in MIC of cefuroxime sodium at sub-MIC measured after 20 passages relative to control", "assay_type": "functional"}, "[9]": {"tested_on": "Staphylococcus aureus", "assay": "Induction of resistance development in drug-resistant Staphylococcus aureus assessed as fold increase in MIC of ampicillin sodium at sub-MIC measured after 20 passages relative to control", "assay_type": "functional"}}, "data": [{"smiles": "O=C(Cc1ccccc1)N[C@@H]1C(=O)N2C(C(=O)O)=C(C[n+]3ccccc3)CS[C@H]12.[I-]", "values": [{"measurement": "MIC", "setting": "[1]", "result": 16, "unit": "µg/mL"}, {"measurement": "MIC", "setting": "[2]", "result": 0.063, "unit": "µg/mL"}, {"measurement": "MIC", "setting": "[3]", "result": 64, "unit": "µg/mL"}, {"measurement": "MIC", "setting": "[4]", "result": 32, "unit": "µg/mL"}, {"measurement": "HC50 at 1 h", "setting": "[5]", "result": "> 1280", "unit": "µg/mL"}, {"measurement": "fold change (FC)", "setting": "[6]", "result": 64}, {"measurement": "fold change (FC)", "setting": "[7]", "result": 8}, {"measurement": "fold change (FC)", "setting": "[8]", "result": ">128"}, {"measurement": "fold change (FC)", "setting": "[9]", "result": 64}]}]}
